Laboratory results from EPA's CvTdb concentration-time database.

Columns and labels:
Assay in all cases: concentration in plasma after dosing
Rat [1] = conditions: dosed: Bromochloroacetic acid, 40 mg/kg, oral, Female, Harlan Sprague Dawley
Rat [2] = conditions: dosed: Bromochloroacetic acid, 40 mg/kg, oral, Female, Harlan Sprague Dawley; remark: listed apart in the source
Rat [3] = conditions: 20 min; dosed: Bromochloroacetic acid; 10 mg/kg; oral; Male; Harlan Sprague Dawley
Rat [4] = conditions: dosed: Bromochloroacetic acid, 10 mg/kg, oral, Male, Harlan Sprague Dawley
Rat [5] = conditions: 0.75 h; dosed: Bromochloroacetic acid; 40 mg/kg; oral; Female; Harlan Sprague Dawley
Rat [6] = conditions: dosed: Bromochloroacetic acid, 40 mg/kg, oral, Female, Harlan Sprague Dawley; remark: listed apart in the source
Rat [7] = conditions: dosed: Bromochloroacetic acid, 10 mg/kg, oral, Male, Harlan Sprague Dawley; remark: listed apart in the source
Rat [8] = conditions: dosed: Bromochloroacetic acid, 10 mg/kg, oral, Male, Harlan Sprague Dawley; remark: listed apart in the source
Rat [9] = conditions: 0.25 h; dosed: Bromochloroacetic acid; 10 mg/kg; oral; Male; Harlan Sprague Dawley
Rat [10] = conditions: dosed: Bromochloroacetic acid, 10 mg/kg, oral, Male, Harlan Sprague Dawley; remark: listed apart in the source
Rat [11] = conditions: dosed: Bromochloroacetic acid, 10 mg/kg, oral, Male, Harlan Sprague Dawley; remark: listed apart in the source
Rat [12] = conditions: 0.25 h; dosed: Bromochloroacetic acid; 10 mg/kg; oral; Male; Harlan Sprague Dawley; remark: listed apart in the source
Rat [13] = conditions: dosed: Bromochloroacetic acid, 10 mg/kg, oral, Male, Harlan Sprague Dawley; remark: listed apart in the source
Rat [14] = conditions: dosed: Bromochloroacetic acid, 40 mg/kg, oral, Female, Harlan Sprague Dawley; remark: listed apart in the source
Rat [15] = conditions: dosed: Bromochloroacetic acid, 10 mg/kg, oral, Male, Harlan Sprague Dawley; remark: listed apart in the source
Rat [16] = conditions: dosed: Bromochloroacetic acid, 10 mg/kg, oral, Male, Harlan Sprague Dawley; remark: listed apart in the source
Rat [17] = conditions: dosed: Bromochloroacetic acid, 40 mg/kg, oral, Female, Harlan Sprague Dawley; remark: listed apart in the source
Rat [18] = conditions: 20 min; dosed: Bromochloroacetic acid; 10 mg/kg; oral; Male; Harlan Sprague Dawley; remark: listed apart in the source
Rat [19] = conditions: dosed: Bromochloroacetic acid, 10 mg/kg, oral, Male, Harlan Sprague Dawley; remark: listed apart in the source
Rat [20] = conditions: dosed: Bromochloroacetic acid, 10 mg/kg, oral, Male, Harlan Sprague Dawley; remark: listed apart in the source
Rat [21] = conditions: dosed: Bromochloroacetic acid, 40 mg/kg, oral, Female, Harlan Sprague Dawley; remark: listed apart in the source
Rat [22] = conditions: 0.75 h; dosed: Bromochloroacetic acid; 40 mg/kg; oral; Female; Harlan Sprague Dawley; remark: listed apart in the source
Rat [23] = conditions: dosed: Bromochloroacetic acid, 10 mg/kg, oral, Male, Harlan Sprague Dawley; remark: listed apart in the source
Rat [24] = conditions: dosed: Bromochloroacetic acid, 10 mg/kg, oral, Male, Harlan Sprague Dawley; remark: listed apart in the source
Rat [25] = conditions: dosed: Bromochloroacetic acid, oral, Harlan Sprague Dawley
Rat [26] = conditions: 5 min; dosed: Bromochloroacetic acid; 40 mg/kg; oral; Female; Harlan Sprague Dawley
Rat [27] = conditions: dosed: Bromochloroacetic acid, 40 mg/kg, oral, Female, Harlan Sprague Dawley; remark: listed apart in the source
Rat [28] = conditions: 20 min; dosed: Bromochloroacetic acid; 10 mg/kg; oral; Male; Harlan Sprague Dawley; remark: listed apart in the source
Rat [29] = conditions: 20 min; dosed: Bromochloroacetic acid; 10 mg/kg; oral; Male; Harlan Sprague Dawley; remark: listed apart in the source
Rat [30] = conditions: dosed: Bromochloroacetic acid, 40 mg/kg, oral, Female, Harlan Sprague Dawley; remark: listed apart in the source
Rat [31] = conditions: dosed: Bromochloroacetic acid, 10 mg/kg, oral, Male, Harlan Sprague Dawley; remark: listed apart in the source
Rat [32] = conditions: dosed: Bromochloroacetic acid, 40 mg/kg, oral, Female, Harlan Sprague Dawley; remark: listed apart in the source
Rat [33] = conditions: dosed: Bromochloroacetic acid, 10 mg/kg, oral, Male, Harlan Sprague Dawley; remark: listed apart in the source
Rat [34] = conditions: 0.75 h; dosed: Bromochloroacetic acid; 40 mg/kg; oral; Female; Harlan Sprague Dawley; remark: listed apart in the source
Rat [35] = conditions: dosed: Bromochloroacetic acid, 10 mg/kg, oral, Male, Harlan Sprague Dawley; remark: listed apart in the source
Rat [36] = conditions: dosed: Bromochloroacetic acid, 40 mg/kg, oral, Female, Harlan Sprague Dawley; remark: listed apart in the source
Rat [37] = conditions: dosed: Bromochloroacetic acid, 10 mg/kg, oral, Male, Harlan Sprague Dawley; remark: listed apart in the source
Rat [38] = conditions: 20 min; dosed: Bromochloroacetic acid; 10 mg/kg; oral; Male; Harlan Sprague Dawley; remark: listed apart in the source
Rat [39] = conditions: 0.75 h; dosed: Bromochloroacetic acid; 40 mg/kg; oral; Female; Harlan Sprague Dawley; remark: listed apart in the source
Rat [40] = conditions: dosed: Bromochloroacetic acid, 40 mg/kg, oral, Female, Harlan Sprague Dawley; remark: listed apart in the source
Rat [41] = conditions: dosed: Bromochloroacetic acid, 40 mg/kg, oral, Female, Harlan Sprague Dawley; remark: listed apart in the source
Rat [42] = conditions: dosed: Bromochloroacetic acid, 40 mg/kg, oral, Female, Harlan Sprague Dawley; remark: listed apart in the source
Rat [43] = conditions: 0.75 h; dosed: Bromochloroacetic acid; 40 mg/kg; oral; Female; Harlan Sprague Dawley; remark: listed apart in the source
Rat [44] = conditions: dosed: Bromochloroacetic acid, 10 mg/kg, oral, Male, Harlan Sprague Dawley; remark: listed apart in the source
Rat [45] = conditions: dosed: Bromochloroacetic acid, 40 mg/kg, oral, Female, Harlan Sprague Dawley; remark: listed apart in the source
Rat [46] = conditions: dosed: Bromochloroacetic acid, 40 mg/kg, oral, Female, Harlan Sprague Dawley; remark: listed apart in the source
Rat [47] = conditions: dosed: Bromochloroacetic acid, 40 mg/kg, oral, Female, Harlan Sprague Dawley; remark: listed apart in the source
Rat [48] = conditions: dosed: Bromochloroacetic acid, 10 mg/kg, oral, Male, Harlan Sprague Dawley; remark: listed apart in the source

O=C(O)C(Cl)Br (stereo not given) [Bromochloroacetic acid]
Conditions | concentration in plasma [ng/mL]
Rat [1], 1.5 h | 5290
Rat [1], 5 min | 1440
Rat [2], 1 h | 7660
Rat [2], 2 min | 536
Rat [4], 1 h | 201
Rat [4], 5 min | 210
Rat [6], 1 h | 8650
Rat [6], 2 min | 484
Rat [7], 1 h | 164
Rat [7], 5 min | 255
Rat [8], 0.25 h | 727
Rat [8], 2 h | 136
Rat [10], 1.5 h | 96.2
Rat [10], 10 min | 241
Rat [11], 0.75 h | 218
Rat [11], 2 min | 104
Rat [13], 0.75 h | 283
Rat [13], 2 min | 71.7
Rat [14], 6 h | 201
Rat [14], 20 min | 5740
Rat [15], 1 h | 224
Rat [15], 5 min | 362
Rat [16], 0.25 h | 643
Rat [16], 2 h | 120
Rat [17], 1.5 h | 4490
Rat [17], 5 min | 2540
Rat [19], 0.75 h | 225
Rat [19], 2 min | 104
Rat [20], 0.25 h | 545
Rat [20], 3 h | 88.7
Rat [21], 4 h | 2010
Rat [21], 20 min | 3310
Rat [23], 0.75 h | 284
Rat [23], 2 min | 80.1
Rat [24], 1 h | 299
Rat [24], 5 min | 383
Rat [27], 1.5 h | 6540
Rat [27], 5 min | 2780
Rat [30], 1 h | 5710
Rat [30], 2 min | 984
Rat [31], 1 h | 196
Rat [31], 5 min | 423
Rat [32], 1.5 h | 7410
Rat [32], 5 min | 4130
Rat [33], 1.5 h | 107
Rat [33], 10 min | 494
Rat [35], 1.5 h | 122
Rat [35], 10 min | 475
Rat [36], 0.25 h | 5810
Rat [36], 3 h | 2170
Rat [37], 1.5 h | 155
Rat [37], 10 min | 322
Rat [40], 1 h | 7500
Rat [40], 2 min | 396
Rat [41], 2 h | 3920
Rat [41], 10 min | 2220
Rat [42], 0.25 h | 3060
Rat [42], 3 h | 1880
Rat [44], 1.5 h | 238
Rat [44], 10 min | 516
Rat [45], 1 h | 9330
Rat [45], 2 min | 564
Rat [46], 4 h | 1060
Rat [46], 6 h | 172
Rat [47], 2 h | 4710
Rat [47], 10 min | 2240
Rat [48], 0.75 h | 485
Rat [48], 2 min | 216

Conditions | concentration in plasma [ng/mL]
Rat [3] | 544
Rat [5] | 6170
Rat [9] | 476
Rat [12] | 576
Rat [18] | 521
Rat [22] | 9710
Rat [26] | 2990
Rat [28] | 663
Rat [29] | 508
Rat [34] | 10700
Rat [38] | 733
Rat [39] | 11800
Rat [43] | 10300

Rat [25]
Conditions | concentration in plasma [ng/mL]
0.25 h, 10 mg/kg, Male | 543
0.25 h, 40 mg/kg, Female | 5910
0.75 h, 10 mg/kg, Male | 177
0.75 h, 40 mg/kg, Female | 7630
1 h, 10 mg/kg, Male | 187
1 h, 40 mg/kg, Female | 6900
1.5 h, 10 mg/kg, Male | 166
1.5 h, 40 mg/kg, Female | 4860
2 h, 10 mg/kg, Male | 95.5
2 h, 40 mg/kg, Female | 2940
2 min, 10 mg/kg, Male | 83.2
3 h, 40 mg/kg, Female | 1990
4 h, 40 mg/kg, Female | 3160
5 min, 10 mg/kg, Male | 214
5 min, 40 mg/kg, Female | 1770
10 min, 10 mg/kg, Male | 168
10 min, 40 mg/kg, Female | 3420
20 min, 10 mg/kg, Male | 364
20 min, 40 mg/kg, Female | 4390
